We go through 2 compounds from patent US11426361B2, “Eye drops for treatment of irritation not due to infection” (Resdevco Research and Development Co. Ltd., priority 2017, dated 2022).

This experiment relates to human corneal epithelial cells (HCEC cell line). Description: Example 5: expression of barrier genes (Involucrin, Occludin, Filaggrin, Cadherin-1) at mRNA level by Q-PCR. The conditions noted are these: three hours. The class given is cell-based. How it is done: An experiment was performed to investigate the effect in vitro of a solution containing glycerol on human corneal epithelial cells, in particular, on the expression of barrier genes Involucrin, Occludin, Filaggrin, and Cadherin-1.
Immortalized human corneal epithelial cells (HCEC cell line) cultured in DMEM/F12 with 5% FBS and 10 ng/ml human epidermal growth factor (Invitrogen—Gibco). The cells were treated for three hours with one of the following three compositions: (a) an aqueous solution of glycerol (0.27% w/v); (b) 20 μg/ml Polyinosinic:polycytidylic acid (p(I:C), an activator of TLR3 to induce inflammation; and (c) a combination of the two previous compositions.
The expression of the barrier genes was determined at the mRNA level by use of quantitative “real-time” PCR (Q-PCR). Q-PCR was performed on an ABI Prism 7000 sequence detection system (Applied Biosystems, Foster City, Calif.) using the 5′ nuclease assay. Total RNA was isolated using TRIzol (Invitrogen) and 3 μg of total RNA were reverse-transcribed into cDNA by using 15 U of AMV reverse transcriptase (Promega, Madison, Wis., USA) and 0.025 μg/μl random primers (Promega). PCR amplification was performed by using the TaqMan primers and probes. As internal controls, transcripts of cyclophilin A (PPIA) were determined.

“Polyinosinic:polycytidylic acid [p(I:C)]”: the “expressions of Involucrin, Occludin, Filaggrin, and Cadherin-1” value (p(I:C) 20 μg/ml alone) is “markedly decreased”.

For the compound `OCC(O)CO` [glycerol], the “effect on barrier-impairing actions of p(I:C) (barrier gene expression)” value (co-incubation with glycerol 0.27% during p(I:C) 20 μg/ml challenge) is “significantly prevented the barrier-impairing actions of the TLR3 agonist”.
